According to US20220000807A1, “METHODS AND APPARATUS FOR TREATING A WOUND” (Chang Gung Memorial Hospital, Linkou, priority 2018, published 2022):

Key:
[1] = test system: severe, relapsing paronychia and pyogenic granuloma-like lesion on left thumb (induced by afatinib); assay: Topical treatment of a patient with afatinib-induced paronychia and pyogenic granuloma-like lesion; assay type: in vivo, human; settings: one patient; for improvement of paronychia and pyogenic granuloma-like lesion with previous topical treatment: previous treatment with all three agents, FIG. 1A
Excerpt: They were subsequently treated with topical 0.25% betaxolol drops once daily (Alcon Laboratories, USA) for 4 weeks under occlusion.

[2] = test system: deep fissure over palms or soles induced by EGFR inhibitors; settings: 10 patients; topical 0.25% drops once a day; FIG. 2A, 2B
Description: 10 patients with deep fissure over palms or soles induced by EGFR inhibitors were treated with topical 0.25% betaxolol drops (Alcon Laboratories, USA) once a day.

[3] = test system: back incisions of rats; assay: In vivo rat back incision wound healing study; settings: for microscopic changes of the 1 cm×1 cm back wound: Day 10, 10 days of drops twice a day (0.25% betaxolol, 0.5% Timoptol), FIG. 4A-4C
Description: An in vivo study was performed to examine the effectiveness of a non-selective β blocker and a β1-blocker using rats. The rats were divided into 3 groups: (a) control (n=2); (b) non-selective […] blocker (n=1); and (c) β1-blocker (n=1). On Day 0 of the experiment, 3 back incisions were made on each rat. The size of the back incisions are 1.5 cm×1.5 cm, 1 cm×1 cm and 0.5 cm×0.5 cm for the top, middle and bottom incisions as shown on FIG. 4A.
The rats in the control group received no treatment, the rat in the non-selective β blocker group received 0.5% Timoptol drop (MSD, USA) twice a day (30 μl for the top incision, 13 μl for the middle incision and 3.3 μl for the bottom incision) and the rat in the β1-blocker group received 0.25% Betoptic drop (Alcon Laboratories, USA) twice a day (30 μl for the top incision, 13 μl for the middle incision and 3.3 μl for the bottom incision).

Row | Compound | improvement of paronychia and pyogenic granuloma-like lesion with previous topical treatment [1] | microscopic changes of the 1 cm×1 cm back wound [3] | further results
1 | O=[N+]([O-])[O-].[Ag+] [silver nitrate] | without any improvement | – | –
2 | CC(C)NCC(O)COc1ccc(CCOCC2CC2)cc1 (centres unmarked) [betaxolol] | – | almost completely healed with re-growth of fibroblasts, complete re-epithelization of epidermis, and no evidence of debri | resolution of paronychia and pyogenic granuloma-like lesion ([1]; topical 0.25% drops once daily for 4 weeks under occlusion, FIG. 1B): complete resolution of paronychia and pyogenic granuloma-like lesion; deep fissure wound healing [2]: healed within one week of treatment in all of the 10 patients; appearance of back incisions (erythema, size) ([3]; 0.25% drop twice a day, after 7 days of treatment, compared to 0.5% Timoptol drops and no treatment, FIG. 3C-3E): less erythematous and smaller in size
3 | CC(C)(C)NC[C@H](O)COc1nsnc1N1CCOCC1.O=C(O)/C=C\C(=O)O [Timoptol] | – | incompletely healing, characterized with incomplete re-epithelization of the epidermis, less fibroblast activity and evidence of debri | –
4 | gentamicin sulfate | without any improvement | – | –
5 | CCCCC(=O)O[C@]1(C(=O)CO)[C@@H](C)C[C@H]2[C@@H]3CCC4=CC(=O)C=C[C@]4(C)[C@@]3(F)[C@@H](O)C[C@@]21C [betamethasone valerate] | without any improvement | – | –
